“And” between values parts separate entries of the source, which are not always exact repeats. Equal values may be shown once.
Assay: xn = mol fraction of the nth substance listed

O=S(=O)([O-])[O-].[Li+].[Li+] + O
Details	viscosity
293.15 K, 101 kPa, x1 = 0.007256	1.26 mPa·s
293.15 K, 101 kPa, x1 = 0.01412	1.55 mPa·s
293.15 K, 101 kPa, x1 = 0.02103	1.89 mPa·s
293.15 K, 101 kPa, x1 = 0.02766	2.31 mPa·s
293.15 K, 101 kPa, x1 = 0.03404	2.82 mPa·s
293.15 K, 101 kPa, x1 = 0.04479	4.02 mPa·s
293.15 K, 101 kPa, x1 = 0.05103	5.05 mPa·s
293.15 K, 101 kPa, x1 = 0.05234	5.28 mPa·s
293.15 K, 101 kPa, x1 = 0.05329	5.47 mPa·s
293.15 K, 101 kPa, x1 = 0.05449	5.71 mPa·s
298.15 K, 101 kPa, x1 = 0.007256	1.12 mPa·s
298.15 K, 101 kPa, x1 = 0.00868	1.152 mPa·s and 1.152 mPa·s
298.15 K, 101 kPa, x1 = 0.01412	1.38 mPa·s
298.15 K, 101 kPa, x1 = 0.02103	1.69 mPa·s
298.15 K, 101 kPa, x1 = 0.02192	1.705 mPa·s and 1.705 mPa·s
298.15 K, 101 kPa, x1 = 0.02766	2.05 mPa·s
298.15 K, 101 kPa, x1 = 0.03404	2.49 mPa·s
298.15 K, 101 kPa, x1 = 0.03935	2.947 mPa·s and 2.947 mPa·s
298.15 K, 101 kPa, x1 = 0.04479	3.49 mPa·s
298.15 K, 101 kPa, x1 = 0.05103	4.36 mPa·s
298.15 K, 101 kPa, x1 = 0.05234	4.57 mPa·s
298.15 K, 101 kPa, x1 = 0.05329	4.71 mPa·s
298.15 K, 101 kPa, x1 = 0.05449	4.95 mPa·s
298.15 K, 101.33 kPa, x1 = 0.05143	2.05 mPa·s
298.15 K, 101.33 kPa, x1 = 0.05627	3.659 mPa·s
300.15 K, 101 kPa, x1 = 0.05329	4.47 mPa·s
300.15 K, 101 kPa, x1 = 0.05449	4.7 mPa·s
303.15 K, 101 kPa, x1 = 0.007256	0.99 mPa·s
303.15 K, 101 kPa, x1 = 0.01412	1.22 mPa·s
303.15 K, 101 kPa, x1 = 0.02103	1.51 mPa·s
303.15 K, 101 kPa, x1 = 0.02766	1.82 mPa·s
303.15 K, 101 kPa, x1 = 0.03404	2.21 mPa·s
303.15 K, 101 kPa, x1 = 0.04479	3.06 mPa·s
303.15 K, 101 kPa, x1 = 0.05103	3.81 mPa·s
303.15 K, 101 kPa, x1 = 0.05234	3.99 mPa·s
303.15 K, 101 kPa, x1 = 0.05329	4.11 mPa·s
303.15 K, 101 kPa, x1 = 0.05449	4.3 mPa·s
305.15 K, 101 kPa, x1 = 0.05329	3.89 mPa·s
305.15 K, 101 kPa, x1 = 0.05449	4.1 mPa·s
308.15 K, 101 kPa, x1 = 0.05103	3.33 mPa·s
308.15 K, 101 kPa, x1 = 0.05234	3.49 mPa·s
308.15 K, 101 kPa, x1 = 0.05329	3.57 mPa·s
310.15 K, 101 kPa, x1 = 0.05329	3.39 mPa·s
311.15 K, 101 kPa, x1 = 0.05234	3.25 mPa·s
312.15 K, 101 kPa, x1 = 0.05329	3.24 mPa·s
313.15 K, 101 kPa, x1 = 0.007256	0.8 mPa·s
313.15 K, 101 kPa, x1 = 0.01412	0.99 mPa·s
313.15 K, 101 kPa, x1 = 0.02103	1.21 mPa·s
313.15 K, 101 kPa, x1 = 0.02766	1.49 mPa·s
313.15 K, 101 kPa, x1 = 0.03404	1.76 mPa·s
313.15 K, 101 kPa, x1 = 0.04479	2.42 mPa·s
313.15 K, 101 kPa, x1 = 0.05103	2.96 mPa·s
313.15 K, 101 kPa, x1 = 0.05234	3.1 mPa·s
313.15 K, 101 kPa, x1 = 0.05329	3.17 mPa·s
314.15 K, 101 kPa, x1 = 0.05329	3.11 mPa·s
316.15 K, 101 kPa, x1 = 0.05234	2.89 mPa·s
318.15 K, 101 kPa, x1 = 0.05103	2.65 mPa·s
318.15 K, 101 kPa, x1 = 0.05234	2.77 mPa·s
320.15 K, 101 kPa, x1 = 0.05234	2.66 mPa·s
323.15 K, 101 kPa, x1 = 0.00868	0.7 mPa·s
323.15 K, 101 kPa, x1 = 0.02192	1.014 mPa·s
323.15 K, 101 kPa, x1 = 0.03935	1.669 mPa·s
323.15 K, 101 kPa, x1 = 0.05103	2.37 mPa·s
323.15 K, 101 kPa, x1 = 0.05234	2.52 mPa·s
323.15 K, 101.33 kPa, x1 = 0.05088	1.378 mPa·s

CC[P+](c1ccccc1)(c1ccccc1)c1ccccc1.[Br-] + CN(CCO)CCO
viscosity [mPa·s], 100 kPa
Details	293.15 K	303.15 K	313.15 K	323.15 K
x1 = 0.05673	152.7	81.77	47.16	29.08
x1 = 0.08776	192.3	100.3	56.67	34.34
x1 = 0.1208	238	121	66.81	39.76

COCCOCCOC + COC(=O)c1ccccc1
viscosity [mPa·s], 101.33 kPa
Details	x1 = 0.1017	x1 = 0.1985	x1 = 0.3026	x1 = 0.3989	x1 = 0.4978	x1 = 0.599	x1 = 0.6958	x1 = 0.7991	x1 = 0.8979
298.15 K	1.707	1.622	1.532	1.448	1.367	1.286	1.209	1.129	1.055
303.15 K	1.542	1.467	1.389	1.317	1.245	1.173	1.105	1.036	0.971
308.15 K	1.401	1.334	1.264	1.2	1.137	1.073	1.014	0.953	0.894
313.15 K	1.279	1.218	1.155	1.1	1.044	0.987	0.934	0.879	0.828
318.15 K	1.169	1.116	1.061	1.012	0.962	0.911	0.862	0.814	0.768

CCCC(=O)[O-].[Na+] + O
298.15 K, 101.33 kPa
Details	viscosity [mPa·s]
x1 = 0.008927	1.136
x1 = 0.0177	1.436
x1 = 0.02631	1.793
x1 = 0.03478	2.235

ClC(Cl)C(Cl)Cl + CCCCCCCCC
303.15 K, 101 kPa
Details	viscosity [mPa·s]
x1 = 0.1552	0.651
x1 = 0.2636	0.704
x1 = 0.3332	0.742
x1 = 0.3926	0.77
x1 = 0.5196	0.836
x1 = 0.5976	0.879
x1 = 0.6903	0.943
x1 = 0.7468	0.991
x1 = 0.8858	1.163
x1 = 0.9204	1.235

COCCOCCOC + CCCCCCCCCCCCCCCC
viscosity [mPa·s], 101.33 kPa
Details	x1 = 0.1013	x1 = 0.2067	x1 = 0.3071	x1 = 0.403	x1 = 0.5078	x1 = 0.6013	x1 = 0.7004	x1 = 0.7997	x1 = 0.9021
298.15 K	2.629	2.359	2.101	1.9	1.721	1.568	1.4	1.262	1.106
308.15 K	2.107	1.885	1.712	1.552	1.414	1.29	1.173	1.058	0.934
318.15 K	1.69	1.515	1.385	1.288	1.178	1.08	0.984	0.89	0.799

Oc1ccccc1 + CC(C)=O
viscosity [mPa·s], 101 kPa
Details	293.2 K	302.95 K	313.25 K	322.95 K
x1 = 0.0613	–	0.36	0.328	0.299
x1 = 0.0926	0.429	–	–	–
x1 = 0.1303	–	0.441	0.399	0.36
x1 = 0.1837	0.56	–	–	–
x1 = 0.1912	–	0.521	0.47	0.422
x1 = 0.2695	–	0.67	0.59	0.53
x1 = 0.2749	0.755	–	–	–
x1 = 0.3325	–	0.808	0.711	0.628
x1 = 0.3763	1.055	–	–	–
x1 = 0.4181	–	1.058	0.904	0.794
x1 = 0.458	1.379	–	–	–
x1 = 0.4832	–	1.319	1.101	0.95
x1 = 0.5364	1.853	–	–	–
x1 = 0.5583	–	1.658	1.363	1.15
x1 = 0.6341	2.75	–	–	–
x1 = 0.6402	–	2.18	1.741	1.425
x1 = 0.6982	3.59	–	–	–
x1 = 0.7215	–	2.91	2.23	1.785
x1 = 0.7829	4.97	–	–	–
x1 = 0.8187	–	3.915	2.875	2.245
x1 = 0.8885	–	4.905	3.465	2.615
x1 = 0.8891	7.3	–	–	–
